The values below come from PubChem BioAssay AID1996.

Converted amounts (≈) assume the structure as drawn.

For this data set the following is noted: buffer; pH 7.4; 200.0 µM.
As a reminder, the kinetic solubility is solubility judged after dilution from a stock solution rather than from solid. In turn, `CCC(=O)Nc1ccc(C(=O)CN2CCC(C)CC2)cc1` yielded a kinetic solubility of 39.4 µg/mL (≈ 137 µM). Take `Clc1ccc(Cc2ccccn2)cc1`: the solubility (kinetic) came to 6.3 µg/mL (≈ 30.9 µM). This solubility kinetic lies about 6.3-fold lower than the previous one. The value for `Cc1cccc(N2CCN(Cc3ccc4c(c3)OCO4)CC2)c1C` was 4 µg/mL (≈ 12.3 µM). `COc1ccc(NC(=O)CSc2cc(C)ccc2C)cn1` gave a kinetic solubility of 45.1 µg/mL (≈ 149 µM). `CSc1nc(N2CCOCC2)c2sccc2n1` yielded a kinetic solubility of 38.6 µg/mL (≈ 144 µM). In the case of `CCSCc1nc(N)nc(NCCc2ccccc2)n1`, the kinetic solubility was 34.7 µg/mL (≈ 120 µM). To `O=C(CSc1nc2ccccc2c(=O)n1Cc1ccc(F)cc1)NCC1CCCO1` (stereo not drawn) belongs 4.1 µg/mL (≈ 9.59 µM). For the compound `Clc1c2c(nc3ccccc13)CCC2`, the solubility (kinetic) worked out at 4 µg/mL (≈ 19.6 µM).

`CC(=O)N/C(=C/c1ccc2c(c1)OCO2)C(=O)N1CCOCC1` displayed a kinetic solubility of 45 µg/mL (≈ 141 µM). `CSc1ccc(CN(C)CC(=O)NCc2ccccc2)cc1` had a kinetic solubility of 41 µg/mL (≈ 130 µM). This solubility kinetic and that of the compound before are within 1.5-fold of each other.

`COc1ccc(CC(=O)NC(=S)Nc2cccc(C)c2)cc1` showed a solubility (kinetic) of 4 µg/mL (≈ 12.7 µM). In the case of `O=C(CCc1ccc(S(=O)(=O)N2CCOCC2)cc1)Nc1ccccc1F`, the solubility (kinetic) was more than 58.9 µg/mL. To `O=C(O)c1cccnc1` belongs more than 18.5 µg/mL; to `Cc1cccc(CN2CCSCC2)c1`, 7 µg/mL (≈ 33.8 µM). To `Cc1cc(C(=O)O)c(C)n1C1CC1` belongs more than 26.9 µg/mL; to `CC(C)CC1NC(=O)N(CC(=O)NC2CCCc3ccccc32)C1=O` (stereo not drawn), 45.7 µg/mL (≈ 133 µM). To `O=C(C#Cc1ccccc1)Nc1ccc(F)cc1` belongs 2.4 µg/mL (≈ 10 µM); to `Cc1cccc(C)c1Nc1ncnc2ccccc12.Cl`, more than 42.9 µg/mL; to `CCCS(=O)(=O)N1CCCC(C(=O)Oc2ccc(Cl)cc2)C1` (stereo not drawn), 1.5 µg/mL (≈ 4.34 µM).

With `O=C(Nc1ccc(OC(F)(F)F)cc1)c1ccc2c(c1)no[n+]2[O-]`, the kinetic solubility was 1.1 µg/mL (≈ 3.24 µM). The value for `Clc1ccc2nc(-c3ccccc3)nc(C(Cl)Cl)c2c1` was less than 0.3 µg/mL; that for `O=S(=O)(CCN1CCSCC1)c1ccc(Cl)cc1` was 41.3 µg/mL (≈ 135 µM). As to `Cc1ccc(C(=O)NCc2ccc3c(c2)OCO3)cc1C`, the kinetic solubility came to 31.7 µg/mL (≈ 112 µM). The value for `CC(C)C(NS(=O)(=O)c1cc(C(=O)O)ccc1Cl)C(=O)O` (stereo not drawn) was 44.7 µg/mL (≈ 133 µM).

As to `CCc1ccc(OCCOCCN2CCN(C)CC2)cc1.O=C(O)C(=O)O`, the solubility (kinetic) was 54 µg/mL. The value for `CCCn1c(=N)c(C#N)cc2c(=O)n3cccc(C)c3nc21` was 2.3 µg/mL (≈ 7.84 µM); that for `C#CC[N+]1(C)C2CCC1CC(O)C2.[Br-]` (stereo not drawn) was 33.7 µg/mL. To `COc1cc(Nc2ncnc(N)n2)cc(OC)c1OC` belongs more than 41.6 µg/mL; to `O=[N+]([O-])c1ncccc1OCc1ccccc1Br`, 5.7 µg/mL (≈ 18.4 µM); to `COc1cccc(C(=O)NNC(=O)CCC(=O)O)c1`, more than 39.9 µg/mL.

On to `Cc1noc(NS(=O)(=O)c2ccc(NC(=O)c3ccc(F)cc3)cc2)c1C`, for which the solubility (kinetic) is more than 58.4 µg/mL.

As to `CCCCc1nc2cc(C(=O)N(C)C3CCOCC3)ccc2o1`, the solubility (kinetic) is more than 47.5 µg/mL. `CN1CCN(c2nc(-c3ccccc3O)nc3ccccc23)CC1` came in with a kinetic solubility of 1 µg/mL (≈ 3.12 µM). To `CC1CCCN(c2ccc(C(=O)Nc3cccnc3)cc2[N+](=O)[O-])C1` (stereo not drawn) belongs 15.8 µg/mL (≈ 46.4 µM); to `CCN(CC)CC1C(=O)N(c2ccc(OC)cc2)C1c1ccccc1` (stereo not drawn), more than 50.8 µg/mL; to `Cc1ccc(NC(=O)c2cc(=O)[nH]c3ccccc23)cc1C`, less than 0.3 µg/mL. The value for `CC(C)(C)Nc1nc2cc([N+](=O)[O-])ccc2o1` was 10.9 µg/mL (≈ 46.3 µM); that for `O=S(=O)(Nc1ccncc1)c1cc(Cl)c(Cl)cc1Cl` was 1.6 µg/mL (≈ 4.74 µM). The value for `CC(C)(C)c1ccc(CSc2nc(N)cc(=O)[nH]2)cc1` was 6.4 µg/mL (≈ 22.1 µM); that for `O=C(Nc1ccc(Cl)c(Cl)c1)c1ccco1` was 8.5 µg/mL (≈ 33.2 µM). For `CN(C)C=Nc1ccc2nc3c(cc2c1)[nH]c1ccccc13`, the kinetic solubility was more than 43.3 µg/mL.

As to `Cc1ccc(OCCC(=O)OCC(=O)NC2CCCC(C)C2C)cc1` (stereo not drawn), the solubility (kinetic) was 15.9 µg/mL (≈ 45.8 µM). To `COc1cc(OC)cc(C(=O)N[C@H](C(=O)OCC(=O)Nc2ccc3c(c2)OCO3)C(C)C)c1` belongs 21.2 µg/mL (≈ 46.2 µM); to `Cc1cccc(NC(=O)c2cc(=O)[nH]c3ccccc23)c1`, 3.1 µg/mL (≈ 11.1 µM). The value for `O=C(c1ccc([N+](=O)[O-])s1)N1CCc2ccccc2C1` was 2.8 µg/mL (≈ 9.71 µM); that for `CC(O)Cn1c(N2CCCC2)nc2c1c(=O)n(C)c(=O)n2C` (stereo not drawn) was more than 46.1 µg/mL; that for `CC(C#N)Sc1ccc(S(=O)(=O)N2CCCC2)cn1` (stereo not drawn) was 37.7 µg/mL (≈ 127 µM). The value for `CCOc1cc(C=O)ccc1OCC(N)=O` was more than 33.5 µg/mL; that for `COc1cccc(NC(=O)CN(C)C(=O)C2CC3C=CC2C3)c1` (stereo not drawn) was more than 47.2 µg/mL; that for `Cc1ccc(CC2SC(N=C(N)N)=NC2=O)cc1` (stereo not drawn) was more than 39.3 µg/mL. With `COc1ccc(-c2cc3cc(OC)c(OC)cc3c(C)n2)cc1C`, the kinetic solubility is less than 0.7 µg/mL. To `Cc1ccc(C)c(-n2ccnc2SCC(N)=O)c1` belongs more than 39.2 µg/mL. Consider `CC(=O)Nc1ccc2c(c1)CCCC2=O`, for which the solubility (kinetic) amounted to 30.2 µg/mL (≈ 149 µM).
